Values quoted from earlier work in US12343417B2, “Antiperspirant compositions” (Conopco, Inc., priority 2018, dated 2025).

Test system: Staphylococcus epidermidis
Settings: 80% or greater reduction in growth over 16 to 24 hours at 37° C.

MIC	Compound
greater than 1 mg·ml^−1	CCO [ethanol]
ca. 25 μg·ml^−1	CC(C)=CCCC(C)=CCCC(C)=CCO [farnesol, 3,7,11-trimethyldodeca-2,6, 10-trienol]

Compound	MIC
Oc1cc(Cl)ccc1Oc1ccc(Cl)cc1Cl [triclosan, 2′,4,4′-trichloro,2-hydroxy-diphenyl ether]	0.01 to 10 µg/mL
